What was measured:
[1] = system: HT-29 colon carcinoma cells; type: cell-based; conditions: HT-29 cells, 48 hours incubation, MTT; read-out: IC50 (concentration giving a T/C of 50% growth inhibition)
[2] = system: Human breast tumors (MX-1); assay: In vivo activity, MX-1 human breast tumor xenograft in athymic nude mice; conditions: subcutaneous injection, 10, 20 or 30 mg/kg, three doses per week, days 5-23
Description: Compounds of this invention were further tested in pre-clinical assays for in vivo activity which is indicative of clinical utility. Such assays were conducted with nude mice into which tumor tissue, preferably of human origin, had been transplanted (xenografted), as is well known in this field. Test compounds were evaluated for anti-tumor efficacy following administration to the xenograft-bearing mice.
Human breast tumors (MX-1) which had been grown in athymic nude mice were transplanted into new recipient mice, using tumor fragments which were about 50 mg in size. The day of transplantation was designated as day 0. The mice were divided into four groups of 5-10 mice each. An untreated group served as the control. Three groups were treated by subcutaneous injection of compound 1, with each group receiving three doses per week of 30, 20 or 10 mg/kg body weight. Doses were administered on days 5, 7, 9, 12, 14, 16, 19, 21 and 23 post post-implantation.
Tumor diameters and body weights were measured twice weekly. Tumor volumes were calculated using the diameters measured with Vernier calipers, and the formula
(length×width^2)/2=mm^3 of tumor volume
Mean tumor volumes are calculated for each treatment group, and T/C values determined for each group relative to the untreated control tumors.

[3] = system: four different human lymphoma cell lines; conditions: cited from earlier work
[4] = synthetic Dolastatin 10; cited from earlier work
[5] = system: P388 lymphocytic leukemia (PS system) cell line; conditions: cited from earlier work

| Compound | IC50 [1] [nM] | inhibition of tumor growth (tumor volume versus post-implantation time) [2] | inhibition of growth of human lymphoma cell lines [3] | solubility in aqueous systems [4] | growth inhibition of P388 cell line [5] |
| --- | --- | --- | --- | --- | --- |
| CO[C@H](CC(=O)N1CCC[C@H]1C(=O)Nc1nccs1)[C@H](C(C)C)N(C)C(=O)[C@@H](NC(=O)[C@H](C(C)C)N(C)C)C(C)C [Compound 1, (3R,4S)-4-[N-(N,N-dimethyl-L-valyl-L-valyl)-N-methylamino]-3-methoxy-5-methyl-hexanoyl prolyl-thiazolyl(2)-amide] | 60 | significant dose-dependent inhibition of tumor growth | – | – | – |
| Dolastatin 10 | – | – | effectively inhibit | poor solubility | – |
| Dolastatin 15 | – | – | effectively inhibit | – | inhibits the growth |

Source: patent publication US5939527A, “Tetrapeptides as antitumor agents” (BASF Aktiengesellschaft, priority 1996, dated 1999)
